# Experimental data as given in publication PMC3355094 (PLoS Pathogens, 2012).
# Assays:
# [1] = biological target: WBA II; format: binding; settings: read-out: KD [μmol]; cited from earlier work
# [2] = biological target: Cholera toxin B subunit (CTB); format: binding; settings: read-out: KD [μmol]; cited from earlier work
# [3] = biological target: Jacalin; assay: Literature thermodynamic binding data of lectin-carbohydrate interactions compiled in Table S6 for comparison; conditions not given; parameters: method as in values quoted from other papers; settings: read-out: KD [μmol]; cited from earlier work
# [4] = biological target: T1, V93A (Coprinopsis cinerea, UniProt B3GA02, V93A); assay: biochemical; format: binding
# T1 construct: gene ccl2
# [5] = biological target: T2, W78A (Coprinopsis cinerea, UniProt B3GA02, W78A); assay: biochemical; format: binding
# T2 construct: gene ccl2
# [6] = biological target: T3, Y57A (Coprinopsis cinerea, UniProt B3GA02, Y57A); assay: biochemical; format: binding
# T3 construct: gene ccl2
# [7] = biological target: T4, Y92A (Coprinopsis cinerea, UniProt B3GA02, Y92A); assay: biochemical; format: binding
# T4 construct: gene ccl2
# [8] = biological target: T5, N90A (Coprinopsis cinerea, UniProt B3GA02, N90A); assay: biochemical; format: binding
# T5 construct: gene ccl2
# [9] = biological target: T6, L87A (Coprinopsis cinerea, UniProt B3GA02, L87A); assay: biochemical; format: binding
# T6 construct: gene ccl2
# [10] = biological target: T7, K109A (Coprinopsis cinerea, UniProt B3GA02, K109A); assay: biochemical; format: binding
# T7 construct: gene ccl2
# [11] = biological target: T8, N91A (Coprinopsis cinerea, UniProt B3GA02, N91A); assay: biochemical; format: binding
# T8 construct: gene ccl2
# [12] = biological target: T9, W94A (Coprinopsis cinerea, UniProt B3GA02, W94A); assay: biochemical; format: binding
# T9 construct: gene ccl2
# [13] = biological target: ConA; assay: Literature thermodynamic binding data of lectin-carbohydrate interactions compiled in Table S6 for comparison; conditions not given; parameters: method as in values quoted from other papers; settings: read-out: KD [μmol]; cited from earlier work
# [14] = parameters: method as in ref 5 of Table S6 (Turnbull et al. 2004); settings: ligand GM1os; ref 5 of Table S6 (Turnbull et al. 2004); cited from earlier work
# T5 sequence (B3GA02 2-142 N90A limits assumed): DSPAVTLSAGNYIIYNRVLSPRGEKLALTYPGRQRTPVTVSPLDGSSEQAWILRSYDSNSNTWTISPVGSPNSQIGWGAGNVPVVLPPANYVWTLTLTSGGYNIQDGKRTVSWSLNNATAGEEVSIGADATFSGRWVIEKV
# T4 sequence (B3GA02 2-142 Y92A limits assumed): as the sequence (B3GA02 2-142 N90A limits assumed) above, with A89N, Y91A counted along it
# T7 sequence (B3GA02 2-142 K109A limits assumed): as the sequence (B3GA02 2-142 N90A limits assumed) above, with A89N, K108A counted along it
# T8 sequence (B3GA02 2-142 N91A limits assumed): as the sequence (B3GA02 2-142 N90A limits assumed) above, with A89N, N90A counted along it
# T1 sequence (B3GA02 2-142 V93A limits assumed): as the sequence (B3GA02 2-142 N90A limits assumed) above, with A89N, V92A counted along it
# T2 sequence (B3GA02 2-142 W78A limits assumed): as the sequence (B3GA02 2-142 N90A limits assumed) above, with W77A, A89N counted along it
# T3 sequence (B3GA02 2-142 Y57A limits assumed): as the sequence (B3GA02 2-142 N90A limits assumed) above, with Y56A, A89N counted along it
# T6 sequence (B3GA02 2-142 L87A limits assumed): as the sequence (B3GA02 2-142 N90A limits assumed) above, with L86A, A89N counted along it
# T9 sequence (B3GA02 2-142 W94A limits assumed): as the sequence (B3GA02 2-142 N90A limits assumed) above, with A89N, W93A counted along it
molecule,measurement,setting,value
"CO[C@@H]1O[C@H](CO)[C@@H](O[C@@H]2O[C@H](CO)[C@H](O)[C@H](O)[C@H]2O[C@@H]2O[C@@H](C)[C@@H](O)[C@@H](O)[C@@H]2O)[C@H](O)[C@H]1NC(C)=O [Fuc1,2Gal1,4GlcNAcOMe, Fucα1,2Galβ1,4GlcNAc methyl glycoside]",Kd,[1],3.2 µM
"CC(=O)N[C@H]1[C@H](O[C@@H]2[C@H](O[C@]3(C(=O)O)C[C@H](O)[C@@H](NC(C)=O)[C@H]([C@H](O)[C@H](O)CO)O3)[C@@H](O)[C@H](O[C@H]3[C@H](O)[C@@H](O)C(O)O[C@@H]3CO)O[C@@H]2CO)O[C@H](CO)[C@H](O)[C@@H]1O[C@@H]1O[C@H](CO)[C@H](O)[C@H](O)[C@H]1O (stereo partly drawn) [GM1os, GM1 ganglioside oligosaccharide]",Kd,[2],43 nM
"CO[C@H]1O[C@H](CO)[C@H](O)[C@H](O)[C@H]1O [GalOMe, methyl galactopyranoside]",Kd,[3],58 µM
"CC(=O)N[C@H]1[C@H](O[C@H]2[C@H](O[C@@H]3O[C@@H](C)[C@@H](O)[C@@H](O)[C@@H]3O)[C@@H](NC(C)=O)[C@H](OCCCCCC(=O)O)O[C@@H]2CO)O[C@H](CO)[C@@H](O)[C@@H]1O [GlcNAcβ1,4[Fucα1,3]GlcNAcβ1-sp, fucosylated chitobiose, GlcNAcβ1,4[Fucα1,3]GlcNAcβ-O(CH2)5COOH]",Kd,[4],27.2 µM
same,Kd,[5],62.9 µM
same,Kd,[6],10.9 µM
same,Kd,[7],> 500 µM
same,Kd,[8],6.7 µM
same,Kd,[9],26.3 µM
same,Kd,[10],1500 nM
same,Kd,[11],180 nM
same,Kd,[12],310 µM
"CO[C@H]1O[C@H](CO[C@H]2O[C@H](CO)[C@@H](O)[C@H](O)[C@@H]2O)[C@@H](O)[C@H](O[C@H]2O[C@H](CO)[C@@H](O)[C@H](O)[C@@H]2O)[C@@H]1O [Man1,6[Man1,3]ManOMe, Manα1,6[Manα1,3]Man methyl glycoside]",Kd,[13],2000 nM
Cholera toxin B subunit (CTB): cholera-toxin B subdomain,–TΔS,[14],30.8 kJ/mol
same,–ΔH,[14],72.4 kJ/mol
